# Assay results: ChEMBL document CHEMBL3868597, “Modulating amyloid-β aggregation: The effects of peptoid side chain placement and chirality” (Bioorg Med Chem, 2017)
# Activity calls are given as the source filed them. No cut-off for these calls is given here. Non-standard residues stand in square brackets, D forms with d. Residues, ends and D or L forms follow the SMILES beside them. N(1S-Me-propyl)Gly = CC[C@H](C)NCC(=O)O; Nspe = C[C@H](NCC(=O)O)c1ccccc1; Nphe = O=C(O)CNCc1ccccc1; NPrGly = CCCNCC(=O)O; Nlys = NCCCCNCC(=O)O
# Assays:
# [1] = biological target: Amyloid-beta precursor protein (Homo sapiens) (UniProt P05067); assay: Inhibition of amyloid beta (1 to 40) (unknown origin) aggregation assessed as reduction in number aggregates at equilibrium at 100 uM after 24 hrs by uranyl acetate staining based transmission electron microscopic analysis
# Amyloid-beta precursor protein (Homo sapiens), sequence (P05067 whole entry): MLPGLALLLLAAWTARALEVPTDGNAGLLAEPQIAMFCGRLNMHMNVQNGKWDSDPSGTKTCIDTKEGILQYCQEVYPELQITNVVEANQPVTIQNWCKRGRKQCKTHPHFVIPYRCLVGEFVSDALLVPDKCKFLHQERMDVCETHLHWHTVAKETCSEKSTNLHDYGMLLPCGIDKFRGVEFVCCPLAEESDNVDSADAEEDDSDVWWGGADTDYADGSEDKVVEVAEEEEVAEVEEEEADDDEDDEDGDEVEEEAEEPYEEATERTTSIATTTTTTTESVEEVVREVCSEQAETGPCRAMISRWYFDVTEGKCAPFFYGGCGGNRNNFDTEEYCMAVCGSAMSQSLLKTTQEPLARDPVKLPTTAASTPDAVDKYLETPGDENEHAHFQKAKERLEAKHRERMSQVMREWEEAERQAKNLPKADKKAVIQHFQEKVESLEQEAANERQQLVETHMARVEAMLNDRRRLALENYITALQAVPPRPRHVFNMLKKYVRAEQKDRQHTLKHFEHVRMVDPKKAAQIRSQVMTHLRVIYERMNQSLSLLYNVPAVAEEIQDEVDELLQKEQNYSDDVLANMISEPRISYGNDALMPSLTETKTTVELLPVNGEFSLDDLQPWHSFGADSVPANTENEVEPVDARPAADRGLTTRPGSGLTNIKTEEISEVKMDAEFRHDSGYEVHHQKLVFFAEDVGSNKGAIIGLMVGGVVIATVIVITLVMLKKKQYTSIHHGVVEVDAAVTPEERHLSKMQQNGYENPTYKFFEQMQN
# [2] = biological target: Amyloid-beta precursor protein (Homo sapiens) (UniProt P05067); assay: Inhibition of agitated amyloid beta (1 to 40) (unknown origin) aggregation assessed as increase in lag time at 100 uM by dot blot analysis relative to control
# [3] = biological target: Amyloid-beta precursor protein (Homo sapiens) (UniProt P05067); assay: Inhibition of agitated amyloid beta (1 to 40) (unknown origin) aggregation assessed as reduction in fibrillar aggregates at 100 uM by dot blot analysis
# [4] = biological target: Amyloid-beta precursor protein (Homo sapiens) (UniProt P05067); assay: Inhibition of amyloid beta (1 to 40) (unknown origin) aggregation assessed as absence of fibrillar branching at equilibrium at 100 uM by uranyl acetate staining based transmission electron microscopic analysis
# [5] = biological target: Amyloid-beta precursor protein (Homo sapiens) (UniProt P05067); assay: Inhibition of agitated amyloid beta (1 to 40) (unknown origin) aggregation at 100 uM measured at equilibrium by thioflavin T based fluorometric assay
# [6] = biological target: Amyloid-beta precursor protein (Homo sapiens) (UniProt P05067); assay: Inhibition of agitation-induced amyloid beta (1 to 40) (unknown origin) aggregation assessed as decrease in lag time at 100 uM measured every 30 to 45 mins by dot blot analysis relative to control
# [7] = biological target: Amyloid-beta precursor protein (Homo sapiens) (UniProt P05067); assay: Inhibition of amyloid beta (1 to 40) (unknown origin) aggregation assessed as decrease in size of protein aggregation at equilibrium at 100 uM after 24 hrs by uranyl acetate staining based transmission electron microscopic analysis
# [8] = biological target: Amyloid-beta precursor protein (Homo sapiens) (UniProt P05067); assay: Inhibition of agitation-induced amyloid beta (1 to 40) (unknown origin) aggregation assessed as reduction in fibrillar aggregates at 100 uM measured every 30 to 45 mins by dot blot analysis
# [9] = biological target: Amyloid-beta precursor protein (Homo sapiens) (UniProt P05067); assay: Inhibition of agitation-induced amyloid beta (1 to 40) (unknown origin) aggregation at 100 uM measured every 45 mins by thioflavin T based fluorometric assay
# [10] = biological target: Amyloid-beta precursor protein (Homo sapiens) (UniProt P05067); assay: Inhibition of agitation-induced amyloid beta (1 to 40) (unknown origin) aggregation assessed as decrease in lag time at 100 uM by dot blot analysis relative to control
# [11] = biological target: Amyloid-beta precursor protein (Homo sapiens) (UniProt P05067); assay: Inhibition of amyloid beta (1 to 40) (unknown origin) aggregation assessed as circular/bird-nest like aggregate formation at equilibrium at 100 uM after 24 hrs by uranyl acetate staining based transmission electron microscopic analysis
# [12] = biological target: Amyloid-beta precursor protein (Homo sapiens) (UniProt P05067); assay: Inhibition of amyloid beta (1 to 40) (unknown origin) aggregation assessed as increase in surface hydrophobicity at equilibrium by nile red dye-based spectroscopic analysis
inhibition [1],fold change (FC) [2],inhibition [3],inhibition [4],inhibition [5],fold change (FC) [6],inhibition [7],inhibition [8],inhibition [9],fold change (FC) [10],inhibition [11],inhibition [12],SMILES
Active,2.2,50.5%,Active,76.9%,–,–,–,–,–,–,–,CC[C@H](C)NCC(=O)N(CC(=O)N(CC(=O)N(CC(=O)N(CC(=O)N(CCCCN)CC(=O)N(CC(=O)N(CC(N)=O)[C@@H](C)c1ccccc1)[C@@H](C)CC)[C@@H](C)CC)[C@@H](C)c1ccccc1)[C@@H](C)c1ccccc1)[C@@H](C)c1ccccc1 (H-[N(1S-Me-propyl)Gly][Nspe][Nspe][Nspe][N(1S-Me-propyl)Gly][Nlys][N(1S-Me-propyl)Gly][Nspe]-NH2)
Active,2.7,46%,Active,83.1%,< 0.31,Active,63.7%,81.2%,< 0.5,–,–,CC[C@H](C)N(CC(=O)N(CC(=O)N(CC(=O)N(CC(=O)N(CC(=O)N(CC(=O)N(CC(N)=O)[C@@H](C)c1ccccc1)[C@@H](C)c1ccccc1)[C@@H](C)CC)[C@@H](C)c1ccccc1)[C@@H](C)c1ccccc1)[C@@H](C)CC)C(=O)CNCCCCN (H-[Nlys][N(1S-Me-propyl)Gly][N(1S-Me-propyl)Gly][Nspe][Nspe][N(1S-Me-propyl)Gly][Nspe][Nspe]-NH2)
Active,–,72.6%,Active,85.6%,–,–,–,–,–,Active,Active,CCCN(CC(=O)N(CCC)CC(=O)N(CC(=O)N(CC(=O)N(CCC)CC(=O)N(CC(=O)N(CC(N)=O)Cc1ccccc1)Cc1ccccc1)Cc1ccccc1)Cc1ccccc1)C(=O)CNCCCCN (H-[Nlys][NPrGly][NPrGly][Nphe][Nphe][NPrGly][Nphe][Nphe]-NH2)
